Earlier results on 1 compound are cited in US11395831B2, “Combination products of tobramycin compounds and dexameihasone compounds” (Somerset Therapeutics, LLC, priority 2020, dated 2022).

Each structure is given as a SMILES string. In brackets after ≈: the same amount, converted by molar mass.

On to `NC[C@H]1O[C@H](O[C@H]2[C@H](O)[C@@H](O[C@H]3O[C@H](CO)[C@@H](O)[C@H](N)[C@H]3O)[C@H](N)C[C@@H]2N)[C@H](N)C[C@@H]1O` [tobramycin, 0-{3-amino-3-deoxy-α-D-gluco-pyranosyl-(1→4)}-0-{2,6-diamino-2,3,6-trideoxy-α-D-ribohexo-pyranosyl-(1→6)}-2-deoxystreptamine], for which the solubility in water is recorded as 94 mg/mL (≈ 201 mM).
